According to US11149033B2, “Heteroaryl compound, enantiomer, diastereomer or pharmaceutically acceptable salt thereof, and antiviral composition containing same as active ingredient” (priority 2016, dated 2021):
pEC50: −log10 of the molar value.

Key:
A/Perth/16/2009 (H3N2) = test: Antiviral activity (drug efficacy evaluation by concentration) against A/Perth/16/2009 (H3N2); type: cell-based, A type influenza virus; details: Influenza A virus, H3N2; read-out: EC50
[1] = CC50 B/Florida/04/2006, cytotoxicity in the B/Florida/04/2006 assay
[2] = CC50, third EC50/CC50 column pair (c7), beside the EC50 of c6

## c1ccc(-c2cccc(CSc3nnc(Cn4cc(-c5ccccc5)cn4)o3)c2)cc1
other
  melting point: 74.1 °C

## [O-][S+](Cc1ccccc1-c1ccccc1)c1nnc(Cc2ccc(Br)cc2)o1 (stereo not shown) [Compound 59, 2-(([1,1′-biphenyl]-2-ylmethyl)sulfinyl)-5-(4-bromobenzyl)-1,3,4-oxadiazole]
In vitro; [1]
  CC50: > 50 µM

## CN(c1ccc(Br)cc1)c1nnc(SCc2ccccc2-c2ccccc2)o1 [Compound 65, 5-(([1,1′-biphenyl]-2-ylmethyl)thio)-N-(4-bromophenyl)-N-methyl-1,3,4-oxadiazol-2-amine]
In vitro; [1]
  CC50: > 50 µM

## CSc1nnc(Cc2ccccc2)o1 [Compound 80, 2-benzyl-5-(methylthio)-1,3,4-oxadiazole]
In vitro; [1]
  CC50: > 50 µM

## Brc1ccc(Cc2nnc(-c3ccc4ccccc4c3)o2)cc1 [Compound 98, 2-(4-bromobenzyl)-5-(naphthalen-2-yl)-1,3,4-oxadiazole]
In vitro; CC50, beside the EC50 of c2
  CC50: > 50 µM
In vitro; CC50, beside the EC50 of c4
  CC50: > 50 µM
In vitro; [2]
  CC50: > 50 µM

## Cc1ccccc1CSc1ncc(CNc2ccc(Br)cc2)o1 [Compound 99, 4-bromo-N-((2-((2-methylbenzyl)thio)oxazol-5-yl)methyl)aniline]
In vitro; CC50, beside the EC50 of c2
  CC50: > 50 µM
In vitro; CC50, beside the EC50 of c4
  CC50: > 50 µM
In vitro; [2]
  CC50: > 50 µM

## CC(C)c1ccc(Cc2nnc(SCc3ccccc3-c3ccccc3)o2)cc1 [Compound 107, 2-(([1,1′-biphenyl]-2-ylmethyl)thio)-5-(4-isopropylbenzyl)-1,3,4-oxadiazole]
A/Perth/16/2009 (H3N2)
  pEC50: 4.69
In vitro; CC50, beside the EC50 of c2
  CC50: > 50 µM
In vitro; CC50, beside the EC50 of c4
  CC50: > 50 µM
In vitro; [2]
  CC50: > 50 µM

## Cc1ccccc1CCc1nnc(Cc2ccc(F)c(Cl)c2)o1 [Compound 108, 2-(3-chloro-4-fluorobenzyl)-5-(2-methylphenethyl)-1,3,4-oxadiazole]
A/Perth/16/2009 (H3N2)
  pEC50: < 4.30
In vitro; CC50, beside the EC50 of c2
  CC50: > 50 µM
In vitro; CC50, beside the EC50 of c4
  CC50: > 50 µM
In vitro; [2]
  CC50: > 50 µM

## CC(C)c1ccccc1/C=C/c1nnc(Cc2ccc(-c3ccccc3)cc2)o1 [Compound 142, 2-([1,1′-biphenyl]-4-ylmethyl)-5-(2-isopropylstyryl)-1,3,4-oxadiazole]
In vitro; CC50, beside the EC50 of c2
  CC50: > 50 µM
In vitro; CC50, beside the EC50 of c4
  CC50: > 50 µM
In vitro; [2]
  CC50: > 50 µM

## Fc1ccc(Oc2ccccc2/C=C/c2nnc(Cc3ccc(Br)cc3)o2)cc1 [Compound 155, 2-(4-bromobenzyl)-5-(2-(4-fluorophenoxy)styryl)-1,3,4-oxadiazole]
In vitro; CC50, beside the EC50 of c2
  CC50: > 50 µM
In vitro; CC50, beside the EC50 of c4
  CC50: > 50 µM
In vitro; [2]
  CC50: > 50 µM

## Cc1cc(F)ccc1/C=C/c1nnc(Cc2cccc(Br)c2)o1 [Compound 186, 2-(3-bromobenzyl)-5-(4-fluoro-2-methylstyryl)-1,3,4-oxadiazole]
In vitro; CC50, beside the EC50 of c2
  CC50: > 50 µM
In vitro; CC50, beside the EC50 of c4
  CC50: > 50 µM
In vitro; [2]
  CC50: > 50 µM

## CC(C)c1ccccc1/C=C/c1nnc(Cc2ccccc2)o1 [Compound 196, 2-benzyl-5-(2-isopropylstyryl)-1,3,4-oxadiazole]
In vitro; CC50, beside the EC50 of c2
  CC50: > 50 µM
In vitro; CC50, beside the EC50 of c4
  CC50: > 50 µM
In vitro; [2]
  CC50: > 50 µM

## Cc1nc2ccccc2n1Cc1nnc(/C=C/c2ccc(F)cc2Cl)o1 [Compound 203, (E)-2-(2-chloro-4-fluorostyryl)-5-((2-methyl-1H-benzo[d]imidazol-1-yl)methyl)-1,3,4-oxadiazole]
A/Perth/16/2009 (H3N2)
  pEC50: 4.81
In vitro; CC50, beside the EC50 of c2
  CC50: > 50 µM
In vitro; CC50, beside the EC50 of c4
  CC50: > 50 µM
In vitro; [2]
  CC50: > 50 µM

## Cc1cccc(Cc2nnc(/C=C/c3ccc(F)cc3Cl)o2)c1 [Compound 211, 2-(2-chloro-4-fluorostyryl)-5-(3-methylbenzyl)-1,3,4-oxadiazole]
other
  melting point: 100.5 °C

## Cn1cc(Cc2nnc(/C=C/c3ccc(F)cc3Cl)o2)c2ccccc21 [Compound 213, 2-(2-chloro-4-fluorostyryl)-5-((1-methyl-1H-indol-3-yl)methyl)-1,3,4-oxadiazole]
other
  melting point: 148.1 °C

## Fc1ccc(/C=C/c2nnc(Cc3cccc(Br)c3)o2)c(Br)c1 [Compound 215, 2-(2-bromo-4-fluorostyryl)-5-(3-bromobenzyl)-1,3,4-oxadiazole]
other
  melting point: 129.5 °C

## CN(C)c1cccc(Cc2nnc(/C=C/c3ccc(F)cc3Cl)o2)c1 [Compound 217, 3-((5-(2-chloro-4-fluorostyryl)-1,3,4-oxadiazol-2-yl)methyl)-N,N-dimethylaniline]
other
  melting point: 134.2 °C

## Oc1ccccc1/C=C/c1nnc(Cc2cccc(Br)c2)o1 [Compound 218, 2-(2-(5-(3-bromobenzyl)-1,3,4-oxadiazol-2-yl)vinyl)phenol]
other
  melting point: 179.9 °C

## Fc1ccc(/C=C/c2nnc(Cc3cccc(Cl)n3)o2)c(Cl)c1 [Compound 219, 2-(2-chloro-4-fluorostyryl)-5-((6-chloropyridin-2-yl)methyl)-1,3,4-oxadiazole]
other
  melting point: 145.2 °C

## Cc1cccc(Cc2nnc(/C=C/c3ccc(F)cc3Cl)o2)c1C [Compound 221, 2-(2-chloro-4-fluorostyryl)-5-(2,3-dimethylbenzyl)-1,3,4-oxadiazole]
other
  melting point: 139.3 °C

## Fc1ccc(/C=C/c2nnc(Cc3ccccc3Br)o2)c(Cl)c1 [Compound 222, 2-(2-bromobenzyl)-5-(2-chloro-4-fluorostyryl)-1,3,4-oxadiazole]
other
  melting point: 155.2 °C

## Fc1ccc(/C=C/c2nnc(CCc3cccc(Br)c3)o2)c(Cl)c1 [Compound 223, 2-(3-bromophenethyl)-5-(2-chloro-4-fluorostyryl)-1,3,4-oxadiazole]
other
  melting point: 108.7 °C

## Clc1ncccc1/C=C/c1nnc(Cc2cccc(Br)c2)o1 [Compound 225, 2-(3-bromobenzyl)-5-(2-(2-chloropyridin-3-yl)vinyl)-1,3,4-oxadiazole]
other
  melting point: 162.5 °C

## Fc1cccc(Cc2nnc(/C=C/c3ccc(F)cc3Cl)o2)c1 [Compound 226, 2-(2-chloro-4-fluorostyryl)-5-(3-fluorobenzyl)-1,3,4-oxadiazole]
other
  melting point: 132.5 °C

## Fc1ccc(/C=C/c2nnc(Cc3cccc4cccnc34)o2)c(Cl)c1 [Compound 236, 2-(2-chloro-4-fluorostyryl)-5-(quinolin-8-ylmethyl)-1,3,4-oxadiazole]
other
  melting point: 171.9 °C

## Fc1ccc(/C=C/c2nnc(Cc3nccc4ccccc34)o2)c(Cl)c1 [Compound 237, 2-(2-chloro-4-fluorostyryl)-5-(isoquinolin-1-ylmethyl)-1,3,4-oxadiazole]
other
  melting point: 171.4 °C

## Fc1ccc(/C=C/c2nnc(Cc3cncc4ccccc34)o2)c(Cl)c1 [Compound 238, 2-(2-chloro-4-fluorostyryl)-5-(isoquinolin-4-ylmethyl)-1,3,4-oxadiazole]
other
  melting point: 171.3 °C

## COC(=O)c1ccccc1/C=C/c1nnc(Cc2cccc(Br)c2)o1 [Compound 242, methyl-2-(2-(5-(3-bromobenzyl)-1,3,4-oxadiazol-2-yl)vinyl)benzoate]
other
  melting point: 131.1 °C

## O=C(O)c1ccccc1/C=C/c1nnc(Cc2cccc(Br)c2)o1 [Compound 243, 2-(2-(5-(3-bromobenzyl)-1,3,4-oxadiazol-2-yl)vinyl)benzoic acid]
other
  melting point: 167.7 °C

## O=C(Nc1ccc(F)cc1Cl)c1nnc(Cc2cccc(Br)c2)o1 [Compound 244, 5-(3-bromobenzyl)-N-(2-chloro-4-fluorophenyl)-1,3,4-oxadiazole-2-carboxamide]
other
  melting point: 165.8 °C

## Fc1cc(F)c(/C=C/c2nnc(Cc3cccc(Br)c3)o2)c(Cl)c1 [Compound 245, 2-(3-bromobenzyl)-5-(2-chloro-4,6-difluorostyryl)-1,3,4-oxadiazole]
other
  melting point: 112 °C

## O=C(Nc1cccc(Br)c1)c1nnc(/C=C/c2ccc(F)cc2Cl)o1 [Compound 253, N-(3-bromophenyl)-5-(2-chloro-4-fluorostyryl)-1,3,4-oxadiazole-2-carboxamide]
other
  melting point: 254.2 °C

## Cc1cc(F)cc(Cc2nnc(/C=C/c3ccc(F)cc3Cl)o2)c1 [Compound 255, 2-(2-chloro-4-fluorostyryl)-5-(3-fluoro-5-methylbenzyl)-1,3,4-oxadiazole]
other
  melting point: 117 °C

## FC(F)(F)Oc1ccccc1/C=C/c1nnc(Cc2cccc(Br)c2)o1 [Compound 256, 2-(3-bromobenzyl)-5-(2-(trifluoromethoxy)styryl)-1,3,4-oxadiazole]
other
  melting point: 103.6 °C

## Fc1ccc(/C=C/c2nnc(Cc3cc(Br)ccc3F)o2)c(Cl)c1 [Compound 258, 2-(5-bromo-2-fluorobenzyl)-5-(2-chloro-4-fluorostyryl)-1,3,4-oxadiazole]
other
  melting point: 156.6 °C

## Cc1ccc(Cc2nnc(/C=C/c3ccc(F)cc3F)o2)cc1Br [Compound 262, 2-(3-bromo-4-methylbenzyl)-5-(2,4-difluorostyryl)-1,3,4-oxadiazole]
other
  melting point: 132 °C

## Fc1ccc(/C=C/c2nnc(Cc3ccc(F)c(Br)c3)o2)c(F)c1 [Compound 263, 2-(3-bromo-4-fluorobenzyl)-5-(2,4-difluorostyryl)-1,3,4-oxadiazole]
other
  melting point: 115 °C

## Fc1ccc(/C=C/c2nnc(Cc3cccc(Br)c3)o2)c(C(F)(F)F)c1 [Compound 264, 2-(3-bromobenzyl)-5-(4-fluoro-2-(trifluoromethyl)styryl)-1,3,4-oxadiazole]
other
  melting point: 137.3 °C

## Cc1ccc(Cc2nnc(/C=C/c3ccc(F)cc3Br)o2)cc1Br [Compound 265, 2-(2-bromo-4-fluorostyryl)-5-(3-bromo-4-methylbenzyl)-1,3,4-oxadiazole]
other
  melting point: 152.6 °C

## Fc1ccc(/C=C/c2nnc(Cc3ccc(F)c(Br)c3)o2)c(Br)c1 [Compound 266, 2-(3-bromo-4-fluorobenzyl)-5-(2-bromo-4-fluorostyryl)-1,3,4-oxadiazole]
other
  melting point: 124.9 °C

## Fc1ccc(/C=C/c2nnc(Cc3cccc(C4CC4)c3)o2)c(Cl)c1 [Compound 267, 2-(2-chloro-4-fluorostyryl)-5-(3-cyclopropylbenzyl)-1,3,4-oxadiazole]
other
  melting point: 110.2 °C

## Fc1cccc(/C=C/c2nnc(Cc3cccc(Br)c3)o2)c1F [Compound 280, 2-(3-bromobenzyl)-5-(2,3-difluorostyryl)-1,3,4-oxadiazole]
other
  melting point: 97.4 °C

## FC(F)(F)c1ccccc1/C=C/c1nnc(Cc2cccc(Br)c2)o1 [Compound 281, 2-(3-bromobenzyl)-5-(2-(trifluoromethyl)styryl)-1,3,4-oxadiazole]
other
  melting point: 107.2 °C
